Like-named read-outs stand apart in the source and are kept apart here.
Tests used:
jack bean urease = system: jack bean urease; set-up: method as in PMID 17418881; conditions: cited from earlier work
[1] = set-up: method as in PMID 19050709; conditions: human patients; cited from earlier work
ruminal microbiota [2] = conditions: cited from earlier work
ruminal microbiota [3] = experiment: Ruminal microbial fermentation in vitro (six generations): urea and NH3-N; format: cell-based, rumen fluid of Chinese Holstein dairy cows; conditions: 100 μM compound, 24 h, p < 0.01
Protocol: Seven solutions were prepared for the anaerobic media as solution A (3 g/L K2HPO4), solution B (0.6 g/L CaCl2, 3 g/L K2HPO4, 6 g/L NaCl, 0.6 g/L MgSO4·7H2O), solution C (6 g/L K2HPO4), solution D (1.6 g/L CaCl2·2H2O, 6 g/L K2HPO4, 12 g/L NaCl, 2.5 g/L MgSO4·7H2O), trace element solution (300 mg/L H3BO3, 100 mg/L ZnSO4·7H2O, 30 mg/L MnCl2·4H2O, 20 mg/L CoCl2·6H2O, 30 mg/L Na2MoO4·2H2O, 10 mg/L Na2SeO3, 20 mg/L NiCl2, 10 mg/L CuCl2·2H2O, 150 mg/L FeCl2·4H2O), volatile fatty acid (VFA) mixed solution (17 mL acetic acid, 6 mL propionic acid, 4 mL butyric acid, 1 mL n-valeric acid, 1 mL isovaleric acid, and 1 mL isobutyric acid), and hemin solution, prepared by diluting 50 mg of Haemon in NaOH (1 N solution) and made up to 100 mL with distilled water. Each liter of anaerobic media contained 30 mL of autoclaved rumen fluid supernatant, 0.5 g of glucose, 0.5 g of soluble starch, 0.5 g of cellobiose, 0.5 g of maltose, 0.5 g of […], 0.5 g of tripticase, 0.5 g of yeast extract, 8 g of NaHCO3, 0.1 mL of trace elements solution, 15 mL solution A, 15 mL solution B, 0.5 g of cysteine hydrochloride, 10 mL of hemin solution, 3.1 mL of VFA mixed solution, and 1 mg resazurin. The anaerobic urea solution was prepared using an anaerobic glove box, by dissolving 2.5 g of urea in a 50 mL anaerobic diluent. This diluent consisted of 3.8 mL of salt solution C, 3.8 mL of salt solution D, 5 mL of 8% sodium Na2CO3, 1 mL of 0.1% resazurin, 0.5 g of cysteine hydrochloride dissolved in distilled water and made up to 1000 mL and distributed into 50 mL anaerobic bottles. All the anaerobic bottles were sterilized by autoclave. Prior to the inoculation, fresh frozen rumen fluid samples, pretreated as described previously, were removed from the freezer, thawed, homogenized, and used immediately. […] Chromatographic gradients were referenced to the paper.

Caco-2 cells = experiment: CCK8 colorimetric cytotoxicity assay; format: cell-based; conditions: concentration below 100 μM, 24 h, p > 0.05
Protocol: A standard CCK8 colorimetric assay was employed for the evaluation of cytotoxic activity of compound 6238-0047 using 96-well flat bottomed microplates. Dulbecco’s Modified Eagle Medium (GIBCO) with 10% FBS (fetal bovine serum, FBS, Gibco) and 1% NEAA was used for the culturing of Caco-2 cells (ATCC, Manassas, VA, USA), and the medium was supplemented with 100 μg/mL of streptomycin and 100 IU/mL of penicillin. The medium was kept in 5% CO2 and incubated at 37 °C. The exponentially grown cells were harvested, counted using a hemocytometer and diluted with the medium. The cell culture was diluted to a density of 1 × 10^5 cells/mL and transferred into a 96-well plate with 135 μL or […]. The medium was incubated for 24 h for cell attachment. Following this, 15 μL of compounds with different final concentrations of 1, 10, 25, 50, and 100 μM in the experimental group and fresh medium as a control group, were added to a plate with five replicates for each. After 24 h of incubation at 37 °C and kept in 5% CO2, 15 μL of CCK8 was added to each well and after 2 h the absorbance was measured at 450 nm using a microplate reader. The formula for calculating the relative cell viability was as follows:Relative cell viability (%) = absorbance of experimental group/absorbance of control group × 100%

H. pylori urease = system: H. pylori urease; set-up: method as in PMID 23567958; conditions: cited from earlier work
ruminal microbial urease = experiment: Urease inhibition assay (Berthelot alkaline phenol-hypochlorite method); format: biochemical, rumen bacteria of Chinese Holstein dairy cows; conditions: ruminal microbial urease, 37 °C, 30 min, pH 7.5
Protocol: Rumen fluid samples were collected from five Chinese Holstein dairy cows with permanent rumen fistula 3 h after feeding a total mixed ration in the morning. All the operations were conducted in accordance with the protocol approved by the Animal Care and Use Committee for Livestock of the Institute of Animal Sciences, Chinese Academy of Agricultural Sciences (Permit Number: IAS2019-14, Permit Date: 22-03-2019). All rumen fluid samples were filtered by a six layer sterilized medical gauze and mixed in a sterilized beaker before being evenly distributed into different 50 mL tubes and stored in liquid nitrogen. The deforested samples were centrifuged at 12,000× g for 10 min at 4 °C, then the supernatant was removed from the tube. The remaining sediments were resuspended in a HEPES buffer solution (pH 7.5, 50 mM) and then centrifuged at 12,000× g for 10 min at 4 °C. The supernatant was discarded and the remaining rumen bacteria were collected and stored at −80 °C for later urease extraction. All the sample handing processes were conducted on an ice bath. […]
In vitro urease inhibition screening assays were conducted to further narrow the virtual screened compounds for further IC50 determination and kinetic characterization. […] The ammonia that was produced was measured using 50 μL of a phenol reagent containing 10.0 g/L phenol and 50 mg/L of sodium nitroprusside, and 50 μL of alkali reagent containing 5 g/L sodium hydroxide and 8.4 mL/L of sodium hypochlorite solution, at 37 °C for 30 min. The absorbance of each well was measured at 625 nm by a micro plate spectrophotometer (Thermo Scientific Varioskan Flash G-282, Thermo Scientific, Waltham, MA, USA). The endogenous nitrogen (blank) was measured by adding a 70 μL HEPES buffer (pH 7.5, 50 mM) containing no urea and 20 μL methanol solution in the first 30 min of the reaction mixture. The 100% initial activity was determined by adding a 15 μL methanol solution in the first 30 min of the reaction mixture. […]

rumen microbiota = system: rumen microbiota; set-up: method as in PMID 10682821; conditions: cows with permanent rumen fistula, cited from earlier work

SMILES | IC50 (jack bean urease) | Patients with dermatological, neurological or hematological issues necessitating discontinuation of therapy [1] | AHA degradation (ruminal microbiota [2]) | Amount of urea degradation vs control group (ruminal microbiota [3]; 16.65 mM urea) | NH3-N concentration / production vs control group (ruminal microbiota [3]) | Relative cell viability of Caco-2 cell culture (Caco-2 cells) | IC50 (H. pylori urease) | IC50 (ruminal microbial urease) | Ruminal ammonia nitrogen production vs control group (rumen microbiota; fifteenth day of treatment) | Ruminal ammonia nitrogen production vs control group (rumen microbiota; second day of treatment)
CC(=O)NO [AHA, acetohydroxamic acid, reference compound] | 60 µM | more than 20% | 100% | significantly lowered the amount of urea degradation | significantly lower than the control group | no significant influence | 18.2 µM | 158 µM | – | –
CCCCNP(N)(N)=S [NBPT, N-(n-butyl) thiophosphoric triamide] | – | – | – | – | – | – | – | – | tended to approach the control group | lower than that of the control group

Source: paper PMC7503308, “A Novel Urease Inhibitor of Ruminal Microbiota Screened through Molecular Docking” (International Journal of Molecular Sciences, 2020)
